“Also recorded” adds a separate entry of the source. Like-named read-outs stand apart in the source and are kept apart here.
Assays:
NMDA receptor [1] = test: NMDA-induced current in cultured hippocampal neurons, whole-cell recording; assay type: cell-based, rat; conditions: for IC50: Table 2
Method: Whole-cell recordings of NMDA-induced currents in cultured rat hippocampal neurons were carried out as described previously (Subramaniam, S., et al. Neurosci. Lett. 147: 213-216 (1992)). Hippocampal neurons grown in primary culture from 19-day-old Sprague-Dawley rat embryos were used 7-14 days after plating. The extracellular recording solution consisted of (in mM): 140 NaCl, 5 KCl, 0.1 CaCl2, and 10 HEPES (osmolality, 315-325 mOsm; pH, 7.4). Tetrodotoxin (1 μM) and strychnine (1 μM) were added to block Na+channel currents and glycine-activated Cl^- currents, respectively. Patch pipettes (2-5 M.OMEGA.) were prepared from filament-containing thin wall glass capillary tubes and filled with an intracellular solution that consisted of (in mM): 145 CsCl, 2 MgCl2, 5 HEPES, 0.1 CaCl2, and 1 EGTA (osmolality, 310 mOsm; pH, 7.4). Drugs were dissolved in recording solution and applied via a rapid gravity-fed perfusion system. Flow of the drug solutions was regulated by a microvalve operated by a programmable controller.
(§1) Inhibition curves were fit to the two parameter logistic equation for the best-fit estimates of the IC50 using nonlinear least squares curve fitting methods as previously described (Rothman et al. (1993), supra); Jones, S. M. and Rogawski, M. A. Mol. Neuropharmacol. 2: 303-310 (1992)).

PCP site 2 = assay type: binding, guinea pig
Method: Large batches of frozen membranes were prepared with minor modifications of published procedures (Rothman, et al. (1989), supra). Twenty to thirty frozen guinea pig brains with cerebellum were thawed for 15 minutes and homogenized with a Polytron in ice-cold 5 mM Tris-HCl, pH 8.0 (10 ml/brain). The homogenate was centrifuged at 37,000×g for 10 minutes, and the pellet was washed by resuspension in the same volume of buffer followed by recentrifugation. The pellets were resuspended in an equal volume of 5 mM Tris-HCl, pH 8.0, and the concentration was adjusted to 50 mM by the addition of 1M Tris-HCl, pH 8.0. The homogenate was centrifuged for 10 min at 37,000×g. The pellets were then washed three times by resuspension and centrifugation using 50 mM Tris-HCl, pH 8.0. The final pellets were resuspended in the Tris-HCl buffer (0.5 ml/brain), pooled and 1 ml aliquots were distributed to microfuge tubes, which were stored at -70° for assay.
The [^3 H]TCP binding assay for PCP site 2 was conducted with minor modifications of published protocols (Rothman, et al. (1989), supra). Briefly, 12×75 mm polystyrene test tubes were prefilled with 100 μl of [^3 H]TCP (2 nM final concentration) in a protease inhibitor cocktail (PIC) containing 5000 nM (+) -MK801, 100 μl of distilled H2 O or drug (in distilled H2 0), 50 μl of buffer (5 mM Tris-HCL, pH 8.0), and 750 μl of membrane (0.5-1.0 mg/ml protein, in 5 mM Tris-HCl, pH 8.0). […] The protease inhibitor cocktail was composed of 25 μg/ml leupeptin, 25 μg/ml chymostatin, 0.1 mM EDTA, and 0.1 mM ethylene glycol-bis-(beta-aminoethyl-ether)-N,N,N',N'-tetraacetic acid (EGTA). The incubation time was 18-24 hours at 4° C. (steady state) in a final volume of 1 ml. Triplicate samples were filtered with an MR24 Brandel Cell Harvester and washed with two 5 ml aliquots of ice cold buffer. Whatman GF/B filters were presoaked in buffer containing 2% polyethylenimine. The tritium retained on the filters was measured using a Taurus scintillation counter at 44% efficiency after an overnight extraction into ICN Cytoscint cocktail. Non specific binding was determined using 10 μM of TCP. Protein was determine using the method of Lowry, et al., supra.
as §1
^a The binding assays for PCP (site 2) and PCP (site 1) were conducte
as previously reported (Rothman, R. B., et al., In: Multiple Sigma and PC
Receptor Ligands: Mechanisms for Neuromodulation and Protection 307-330
(Domino, E. F. and Kamenka, J. M., eds., 1992) using [^3 H]TCP in the
presence of (+)MK801 for site 2 and [^3 HMK801 for site 1 except that
the [^3 H]TCP assays were terminated after 18-24 hours of incubation

[^3 H]5-HT uptake = Synaptosomal [^3 H]5-HT uptake inhibition; assay type: biochemical, rat; conditions: for IC50: Table 2, nM ± SD, whole rat brain minus cerebellum synaptosomes
Method: Synaptosomal uptake assays were carried out as described (Rothman et al. (1993), supra). Briefly, synaptosomes were prepared by homogenization of rat striatum (for [^3 H]DA reuptake) or whole rat brain minus cerebellum (for [^3 H]5-HT reuptake) in ice-cold 10% sucrose, using a Potter-Elvehjem homogenizer. After a 1000×g centrifugation for 10 min at 4° C., the supernatants were retained on ice. The uptake assays were initiated by the addition of 100 μl of synaptosomes to 12×75 mm polystyrene test tubes, which were prefilled with 750 μl of [^3 H]ligand (2 nM [^3 H]5-HT or 5 nM [^3 H]DA) in a Krebs-phosphate buffer (pH 7.4), which contained ascorbic acid (1 mg/ml) and pargyline (50 μM) (buffer), 100 μl of test drugs made up in buffer containing 1 mg/ml bovine serum albumin, and 50 μl of buffer. The [^3 H]5-HT reuptake experiments were conducted in the presence of 100 nM nomifensine and […] GBR12935 in order to block any possible reuptake into NE and DA nerve terminals. […] The nonspecific uptake of each [^3 H]ligand was measured by incubations in the presence of 1 μM GBR12909 ([^3 H]DA) and 10 μM fluoxetine ([^3 H]5-HT). The incubations were terminated after a 15 min ([^3 H]DA) or 30 min ([^3 H]5-HT) incubation at 25° C. by adding 4 ml of wash buffer (10 mM TRIS-HCl, pH 7.4 containing 0.9% NaCl at 25° C.), followed by rapid filtration over Whatman GF/B filters and one additional wash cycle. […] The Krebs-phosphate buffer contained 154.5 mM NaCl, 2.9 mM KCl, 1.1 mM CaCl2, 0.83 mM MgCl2 and 5 mM glucose. The tritium retained on the filters was counted, in a Taurus beta counter, after an overnight extraction into ICN Cytoscint cocktail.
as §1
Synaptosomal uptake and ligand binding assays were conducted as described
above. Preliminary experiments were conducted to determine the doserange
Each [^3 H] ligand was displaced
by 10 concentrations of test drug. The data of two experiments were
pooled, and fit to the two parameter logistic equation for the bestfit
estimates of the IC50 reported above.

[2] = test system: extracellular dopamine in the nucleus accumbens; conditions: literature; cited from earlier work
NMDA receptor [3] = conditions: Table 2; literature values (footnotes 1 and 2); read-out: NMDA Induced Current IC50; cited from earlier work
[4] = Table 1, [^3 H]TCP in presence of (+)MK801, 18-24 hours at 4° C.

## CNC1CC(c2ccc(Cl)c(Cl)c2)c2ccccc21 (centres unmarked) [Indatraline]
NMDA receptor [1]
  inhibition of NMDA-induced current responses in words: very low potency
  IC50: 95000 nM
PCP site 2
  IC50: 2500 nM
PCP site 2; Table 2, nM ± SD
  IC50: 2530 ± 485 nM
[^3 H]5-HT uptake
  [^3 H]5-HT uptake inhibition in words: potently inhibited; also recorded: potent inhibitor
  IC50: 4.49 ± 0.21 nM
[2]
  effect on extracellular DA levels: increase extracellular DA levels

## c1ccc(C2(N3CCCCC3)CCCCC2)cc1 [PCP, phencyclidine]
PCP site 2
  affinity/selectivity for PCP site 2 in words: approximately the same potency at both sites; also recorded: moderate and about equal affinity for PCP site 1 and PCP site 2
PCP site 2; [4]
  IC50: 92.4 ± 7 nM
PCP site 2; Table 2, nM ± SD
  IC50: 92.4 ± 7 nM
NMDA receptor [3]
  IC50: 2000 nM
[^3 H]5-HT uptake
  IC50: 1420 nM
[2]
  effect on extracellular DA levels: increase extracellular DA levels

## CN1[C@H](Cc2ccccc2)C[C@H]2Cc3ccccc3[C@H]21 (relative stereo) [RTI-4793-14, (2RS, 3aSR, 8aRS)-1,2,3a,8,8a-Hexahydro-2-benzyl-1-methyl-indeno[1,2-b]pyrrole]
NMDA receptor [1]
  inhibition of NMDA-induced current responses in words: low potency; also recorded: very low potency inhibitor
  IC50: 768000 nM
PCP site 2
  affinity/selectivity for PCP site 2 in words: high affinity and selectivity; also recorded: highest affinity for PCP site 2 of any of the drugs tested
PCP site 2; [4]
  IC50: 37.9 nM
PCP site 2; Table 2, nM ± SD
  IC50: 37.9 ± 5.7 nM
PCP site 2; Table 3, guinea pig membranes
  IC50: 37.9 ± 5.7 nM
PCP site 2; listed as 3b
  affinity/selectivity for PCP site 2 in words: potent and selective ligand for site 2
[^3 H]5-HT uptake
  [^3 H]5-HT uptake inhibition in words: moderate potency
  IC50: 1020 ± 72 nM

## C[C@]12N[C@H](Cc3ccccc31)c1ccccc12 [(+)-MK801]
PCP site 2; [4]
  IC50: 15900 nM
PCP site 2; Table 2, nM ± SD
  IC50: > 10000 nM
[^3 H]5-HT uptake
  [^3 H]5-HT uptake inhibition in words: negligible affinity
  IC50: > 4700 nM
